Key:
angiotensin II receptor = assay: Angiotensin II receptor binding assay ([3H] angiotensin II); parameters: species or system rat (Sprague-Dawley adrenal cortex/medulla; Wistar liver); details: 25° C., 60 minutes, test concentration not given
Method: 1. Angiotensin II receptor binding assay
In accordance with the procedure disclosed in Chiu, A. T. et al., Eur. J. Pharm., 157, 13(1981), a ligand marked with a radioisotope was reacted with an angiotensin II receptor and the reactant was filtered with a glass fiber to remove unreacted ligand. After washing the filter, the amount of the remaining isotope was measured to determine the binding activity of the ligand, as described below in detail.
Sprague-Dawley rats and Wistar rats of 250 to 350 g (from The Korea Research Institute of Chemical Technology) were tested and the test procedures were carried out at 4° C., unless otherwise specified. Adrenal gland was separated from the Sprague-Dawley rats (liver, in the case of Wistar rats) into cortex and medulla. The separated adrenal cortex and medulla were washed with a sucrose buffer solution (0.2M sucrose, 1 mM EDTA, 10 mM Tris, Ph 7.2) and homogenized in the same buffer solution by using a Teflon pestle and a Brinkmann homogenizer. The homogenates were centrifuged at 3,000× g for 10 minutes to remove precipitates and further centrifuged at 12,000× g for 13 minutes. The final supernatants were centrifuged at 102,000× g for 1 hour to obtain precipitates, which were washed with a Tris buffer solution (50 mM Tris, 5 mM MgCl2, pH 7.2) and recentrifuged at 102,000× g for 1 hour. The resulting precipitates were immediately processed at the following step or stored at -70° C.
The precipitates were suspended in a Tris buffer solution. The amount of protein was determined by using a Bio-Rad DC protein analyzing kit and the protein concentration was adjusted to the amounts of: 0.2 to 0.3 mg/ml (Sprague-Dawley rat: adrenal cortex), 1.5 to 2.0 mg/ml (Sprague-Dawley rat: adrenal medulla), and 1.5 to 2.0 mg/ml (Wistar rat: liver). To the suspension, bovine serum albumin(BSA) was added to a concentration of 0.25 wt % and the resultant was immediately processed at the following step or stored at -70° C.
50 μl (based on ligand) of [^3 H] angiotensin II (NEN, NET-446) and 10 μl of each of the test compounds with various concentrations were added to the buffer solution (50 mM Tris (pH 7.2), 5 mM MgCl2, 0.25% BSA) to adjust the final volume to be 0.5 ml. 100 μl of the receptor suspension was added thereto and the resulting solution was reacted for 60 minutes while stirring in a water bath at 25° C. 3 ml of cold buffer solution for analysis was added to cease the reaction. The isotope which was bound to the receptor was isolated from the resultant by using Brandel Cell Harvester System with Whatman glass fiber GF/C. After washing the filter, the radioactivity of the filter was determined by using a liquid scintillation counter. Binding inhibition(%) of the test compound was calculated as follows:
Binding Inhibition(%)=[{(T-B)-(S-B)}/(T-B)]×100
wherein T is the radioactivity (cpm) of the reaction product untreated with the test compound, S is the radioactivity (cpm) of the reaction product treated with the test compound, and B is the radioactivity (cpm) of blank test.

unanesthetized dogs [1] = assay: Blood pressure variation with time in unanesthetized dogs; type: in vivo, dog; details: for Maximum Blood Pressure Lowering Effect: 3 mg, oral
Method: (§1) A number of dog was fed freely in a feeding room and those weighing 7 to 12 kg in good health were selected regardless of their gender.
(§2) The test dog was anesthetized with 30 mg/kg of pentobarbital sodium by intravenous injection and the left femoral artery and femoral vein were separated carefully. Silicone catheter, specially prepared and filled with saline treated with heparin (1,000 IU/ml), was cannulated into the blood vessels. After the surgery, the dog was constrained to measure the blood pressure continuously with Gould 2000 physiograph adapted to a Grass P23XL pressure transducer; and the heart rate was monitored with ECG/Biotacho amplifier. The dog was tested at least 2 days after the surgery.
10 mg/kg of furosemide was injected intramuscularly 18 hours (in case of intravenous injection, 2 hours) before the beginning of the test (administration of the test compound) to improve the activity of renin in blood plasma. After the injection of furosemide, neither food nor water was provided. […] The blood pressure and heart rate were measured up to 8 hours after the administration of each test compound.

renal hypertensive rat [2] = assay: Blood pressure lowering effect with respect to dose (renal hypertensive rats); type: in vivo, Sprague-Dawley rat; details: oral
Source text: (§3) To induce renal hypertension, left renal artery of 4 week-old male Sprague-Dawley rat (from The Korea Research Institute of Chemical Technology) was ligated. The rat was anesthetized with ether and the surgical region on the left abdomen of the rat was shaved, disinfected, and then incised about 1 cm vertically. The renal artery near abdominal aorta was isolated carefully from surrounding tissues and veins, and then ligated completely with a suture (4/0 sterile surgical silk). The muscular strata and skin of the surgical area were sutured with a suture (4/0 sterile surgical silk). The surgical region was disinfected to prevent infection and thereafter, 200 to 250 mg/kg/day of cephazolin sodium was injected intramuscularly for 2 days. 6 to 8 days after the ligation, rats showing systolic pressure of more than 180 mmHg were selected for renal hypertension test. The blood pressure was determined by a tail-cuff method from the tail under unanesthetized condition (Gerold, M. et al., Arzneimittel-Forsch., 18, 1285(1968)).
(§4) Each of the compounds to be tested was administered intravenously or orally into the renal hypertensive rat. The blood pressure of the rat was determined by direct method (Chiu, A. T. et al., J. Pharmacol. Exp. Ther., 250, 867(1989)) using a catheter. The rat was anesthetized with ketamine hydrochloride (125 mg/kg, i.p.) and a catheter was filled with saline and inserted into a carotid artery and […]. The surgical area was sutured with a metal clip. The rat was relaxed at least 3 hours and the catheter in the carotid artery was adapted to an isotec pressure transducer to determine the blood pressure and heart rate with a physiograph (Linearcorder WR3310). After the blood pressure was stabilized, the test compound was administered intravenously or orally. For intravenous administration, the administered volume and washing volume were 1.0 ml/kg and 0.2 ml, respectively. The blood pressure and heart rate were measured in regular intervals up to 24 hours after the administration of the test compound and compared with those measured after the administration of the control compound Losartan.
(§5) The test compound was dissolved in 0.05N KOH for intravenous administration and suspended in Tween 80 for oral administration.
The present compounds, Losartan(Dup 753) and the Merck compound were administrated orally to rats in 10, 3 and 1 mg/kg under the same condition as in (ii) and the blood pressure lowering effect was determined.

unanesthetized dogs [3] = assay: Maximum blood pressure lowering effect in unanesthetized dogs at different amounts; type: in vivo, dog
Method: as §1, §2
10 mg/kg of furosemide was injected intramuscularly 18 hours (in case of intravenous injection, 2 hours) before the beginning of the test (administration of the test compound) to improve the activity of renin in blood plasma. After the injection of furosemide, neither food nor water was provided. The test compound was suspended in Tween 80 and administered in an amount of 20 mg/kg orally. The blood pressure and heart rate were measured up to 8 hours after the administration of each test compound.
The maximum blood pressure lowering effect of the present compounds and the control compounds were determined in different amounts of administration using the same method as (i) and the results are given in Table 4.

renal hypertensive rat [4] = assay: Blood pressure lowering effect in renal hypertension; type: in vivo, Sprague-Dawley rat; details: intravenous or oral (not specified)
Source text: as §3, §4, §5

With CCCCc1nc2cc(-c3cc[n+]([O-])cc3)c(CO)nc2n1Cc1ccc(-c2ccccc2-c2nn[nH]n2)cc1 [Example 2, 2-Butyl-5-hyroxymethyl-6-(1-oxy-pyridin-4-yl)-3-[2'-(1H-tetrazol-5-yl)-biphenyl-4-ylmethyl]-3H-imidazo[4,5-b]pyridine] the “Binding Inhibition” value (angiotensin II receptor) was 96.9%.

With CCCCc1nc2cc(-c3cccc[n+]3[O-])c(C(=O)N(CC)CC)nc2n1Cc1ccc(-c2ccccc2-c2nn[nH]n2)cc1 [Example 5, 2-Butyl-6-(1-oxy-pyridin-2-yl)-3-[2'-(1H-tetrazol-5-yl)-biphenyl-4-ylmethyl]-3H-imidazo[4,5-b]pyridin-5-carboxylate Diethylamide] the “Binding Inhibition” value (angiotensin II receptor) was 60.3%.

In the case of CCCCc1nc2cc(-c3cc[n+]([O-])cc3)c(C)nc2n1Cc1ccc(-c2ccccc2-c2nn[nH]n2)cc1 [Example 7, 2-Butyl-5-methyl-6-(1-oxy-pyridin-4-yl)-3-[2'-(1H-tetrazol-5-yl)-biphenyl-4-ylmethyl]-3H-imidazo[4,5-b]pyridine], the “Binding Inhibition” value (angiotensin II receptor) is reported as 95.5%.

With CCCCc1nc2cc(-c3cccc[n+]3[O-])c(C(=O)OC)nc2n1Cc1ccc(-c2ccccc2-c2nn[nH]n2)cc1 [Example 4, 2-Butyl-5-methoxycarbonyl-6-(1-oxy-pyridin-2-yl)-3-[2'-(1H-tetrazol-5-yl)-biphenyl-4-ylmethyl]-3H-imidazo[4,5-b]pyridine] the “Binding Inhibition” value (angiotensin II receptor) was 92.1%.

With CCCCc1nc(Cl)c(CO)n1Cc1ccc(-c2ccccc2-c2nn[nH]n2)cc1 [Losartan (Dup 753), Losartan, reference compound] the “Maximum Blood Pressure Lowering Effect” value (unanesthetized dogs [1]; 0.5 hr) was -11.0%, the “Maximum Blood Pressure Lowering Effect” value (unanesthetized dogs [1]; 1 hr) was -12.3% and the “Maximum Blood Pressure Lowering Effect” value (unanesthetized dogs [1]; 2 hr) was -12.8%. The “Maximum Blood Pressure Lowering Effect” value (unanesthetized dogs [1]; 4 hr) was -9.9%, the “Maximum Blood Pressure Lowering Effect” value (unanesthetized dogs [1]; 6 hr) was -10.1% and the “Maximum Blood Pressure Lowering Effect” value (unanesthetized dogs [1]; 8 hr) was -8.2%. For the same molecule, the “time for which the maximum blood pressure lowering effect lasted after the administration” value (unanesthetized dogs [1]; Table 3, present compounds 1.0 mg, control compound 3 mg) was “up to 2 hours”, the “Maximum Blood Pressure Lowering Effect” value (renal hypertensive rat [2]; 3 mg/kg) was -30% and the “Maximum Blood Pressure Lowering Effect” value (renal hypertensive rat [2]; 10 mg/kg) was -46%. The “Maximum Blood Pressure Lowering Effect” value (unanesthetized dogs [3]; 3 mg/kg) was -13%, the “Maximum Blood Pressure Lowering Effect” value (unanesthetized dogs [3]; 10 mg/kg) was -23% and the “Maximum Blood Pressure Lowering Effect” value (renal hypertensive rat [4]; Amount 10 mg) was -27%. The “Binding Inhibition” value (angiotensin II receptor) was 48.0%.

In the case of CCCCc1nc2cc(-c3ccc[n+]([O-])c3)c(C)nc2n1Cc1ccc(-c2ccccc2-c2nn[nH]n2)cc1 [Example 6, 2-Butyl-5-methyl-6-(1-oxy-pyridin-3-yl)-3-[2'-(1H-tetrazol-5-yl)-biphenyl-4-ylmethyl]-3H-imidazo[4,5-b]pyridine], the “Maximum Blood Pressure Lowering Effect” value (unanesthetized dogs [3]; 0.3 mg/kg) is reported as -9%, the “Maximum Blood Pressure Lowering Effect” value (unanesthetized dogs [3]; 1 mg/kg) is reported as -12% and the “Maximum Blood Pressure Lowering Effect” value (renal hypertensive rat [4]; Amount 3 mg) is reported as -38%. The “Binding Inhibition” value (angiotensin II receptor) was 94.6%.
